Test results as given in ChEMBL document CHEMBL1201862, “PubChem BioAssay data set” (2004).
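Step 1: Grow cells in 96-well plates. Step 2: Expose to compound for 48 hours at 5 concentrations. Step 3: Interpolate endpoints linearly; if unreached, use highest concentration. Here, GI50 denotes the concentration required for 50% inhibition of growth.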 The source made the active and inactive calls. Rule as the data show it: active = GI50 up to about 1.1 µM and inactive = higher.

Key:
Assay in all cases: NCI-60 cell line screen, 48 h
[1] = tested on: HCT-116
[2] = tested on: SW-620
[3] = tested on: SR
[4] = tested on: SK-MEL-2
[5] = tested on: SK-MEL-5
[6] = tested on: IGROV-1
[7] = tested on: M14
[8] = tested on: NCI/ADR-RES
[9] = tested on: NCI-H460
[10] = tested on: SF-295
[11] = tested on: A549
[12] = tested on: BT-549
[13] = tested on: MDA-N
[14] = tested on: CCRF-CEM
[15] = tested on: SK-OV-3
[16] = tested on: CAKI-1
[17] = tested on: HOP-92
[18] = tested on: SNB-75
[19] = tested on: PC-3

Compound | GI50 [1] | GI50 [2] | GI50 [3] | GI50 [4] | GI50 [5] | GI50 [6] | GI50 [7] | GI50 [8] | GI50 [9] | GI50 [10] | GI50 [11] | GI50 [12] | GI50 [13] | GI50 [14] | GI50 [15] | GI50 [16] | GI50 [17] | GI50 [18] | GI50 [19]
COc1ccc(N[S+]([O-])c2ccc(Cl)cc2)cc1 (configuration not stated) | 14.5 µM (inactive) | 49.1 µM (inactive) | 13.4 µM (inactive) | 24.5 µM (inactive) | 28.4 µM (inactive) | 10.5 µM (inactive) | 94 µM (inactive) | 38.8 µM (inactive) | 24.3 µM (inactive) | 45.8 µM (inactive) | 23.5 µM (inactive) | 0.248 µM (active) | 28.3 µM (inactive) | 50.5 µM (inactive) | – | – | – | – | –
N#Cc1c(-c2ccc([N+](=O)[O-])cc2)c(C#N)c(=O)n(NS(=O)(=O)c2ccccc2)c1S | 19.4 µM (inactive) | 22.1 µM (inactive) | – | 19.2 µM (inactive) | 10.8 µM (inactive) | 19.2 µM (inactive) | 37 µM (inactive) | 50.6 µM (inactive) | 48.8 µM (inactive) | 44.8 µM (inactive) | 39.9 µM (inactive) | 15.5 µM (inactive) | – | 16 µM (inactive) | 79.8 µM (inactive) | 66.4 µM (inactive) | > 100 µM (inactive) | 39.6 µM (inactive) | 28.8 µM (inactive)
Cc1ccc(S(=O)(=O)OC2CN3CCC2CC3)cc1 (configuration not stated) | > 100 µM (inactive) | > 100 µM (inactive) | > 100 µM (inactive) | > 100 µM (inactive) | > 100 µM (inactive) | > 100 µM (inactive) | > 100 µM (inactive) | > 100 µM (inactive) | > 100 µM (inactive) | > 100 µM (inactive) | > 100 µM (inactive) | > 100 µM (inactive) | – | 15.5 µM (inactive) | > 100 µM (inactive) | > 100 µM (inactive) | > 100 µM (inactive) | > 100 µM (inactive) | > 100 µM (inactive)
Cc1csc(NNC(=O)Nc2ccccc2)n1 | > 100 µM (inactive) | > 100 µM (inactive) | > 100 µM (inactive) | > 100 µM (inactive) | > 100 µM (inactive) | > 100 µM (inactive) | > 100 µM (inactive) | > 100 µM (inactive) | > 100 µM (inactive) | > 100 µM (inactive) | > 100 µM (inactive) | – | > 100 µM (inactive) | > 100 µM (inactive) | > 100 µM (inactive) | > 100 µM (inactive) | – | > 100 µM (inactive) | > 100 µM (inactive)
O=C1CC(c2ccccc2)n2cccc21 (configuration not stated) | > 100 µM (inactive) | > 100 µM (inactive) | > 100 µM (inactive) | > 100 µM (inactive) | > 100 µM (inactive) | > 100 µM (inactive) | > 100 µM (inactive) | > 100 µM (inactive) | – | > 100 µM (inactive) | > 100 µM (inactive) | – | – | > 100 µM (inactive) | > 100 µM (inactive) | > 100 µM (inactive) | > 100 µM (inactive) | > 100 µM (inactive) | > 100 µM (inactive)
Nc1nc(N)c2ncn(Cc3ccccc3)c2n1 | > 100 µM (inactive) | > 100 µM (inactive) | – | > 100 µM (inactive) | > 100 µM (inactive) | > 100 µM (inactive) | > 100 µM (inactive) | > 100 µM (inactive) | – | > 100 µM (inactive) | > 100 µM (inactive) | > 100 µM (inactive) | > 100 µM (inactive) | > 100 µM (inactive) | > 100 µM (inactive) | > 100 µM (inactive) | > 100 µM (inactive) | 0.0295 µM (active) | > 100 µM (inactive)
CC(C)(C)C1=NN=C2c3ccccc3C(=O)C21 (configuration not stated) | > 100 µM (inactive) | 65.6 µM (inactive) | 24.8 µM (inactive) | 39.8 µM (inactive) | 23 µM (inactive) | 56.1 µM (inactive) | 76.6 µM (inactive) | 83.9 µM (inactive) | 43.9 µM (inactive) | 39.1 µM (inactive) | 45.1 µM (inactive) | – | – | 63.2 µM (inactive) | – | 26.4 µM (inactive) | 15.5 µM (inactive) | 79.6 µM (inactive) | 35.6 µM (inactive)
CC(C)(C)OC(=O)N1[C@@H]2Cc3ccc(N)cc3[C@@]1(C)c1ccccc12 | 18.7 µM (inactive) | 29.7 µM (inactive) | – | 20 µM (inactive) | 0.9 µM (active) | 46.7 µM (inactive) | 24 µM (inactive) | 22.4 µM (inactive) | 21.2 µM (inactive) | 28.1 µM (inactive) | 35.6 µM (inactive) | 18.7 µM (inactive) | 21.2 µM (inactive) | 25.8 µM (inactive) | 34 µM (inactive) | 45.2 µM (inactive) | 23.9 µM (inactive) | – | 29.9 µM (inactive)
